# Data as given in patent US20060239990A1, “Protein Arginine N-Methyltransferase 2 (PRMT-2)” (priority 2003, published 2006).
# Legend:
# [1] = tested on: Stat3; experiment: Leptin-stimulated Stat3 tyrosine phosphorylation in VSMC nuclear extracts; assay type: cell-based, mouse; details: o-vanadate 200 μM pretreatment 15 min
# Description: Cytoplasmic/nuclear extracts were prepared by Dounce homogenizing cells in Cytoplasmic lysis buffer (20 mM HEPES, pH7.9, 10 mM KCl, 1 mM MgCl2, 1% NP-40, 10% glycerol, 100 mM NaF, 1 mM Na3VO4, 1× protease inhibitors cocktail), and sedimenting nuclei by centrifugation at 1,000 rpm for 5 min. The supernatants were removed as samples of cytoplasmic fraction. The nuclei were extracted with nuclear lysis buffer (20 mM HEPES, pH7.9, 300 mM NaCl, 10 mM KCl, 1 mM MgCl2, 1% […], 10% glycerol, […], 1 mM Na3VO4, 1× protease inhibitors cocktail), and then subjected to the immunoblotting.
# Immunoblotting was performed by boiling samples for 5 min at 95° C. followed by centrifugation for 1 min at 4° C. Aliquots of the supernatant were subjected to 7.5, 10% or 4-15% SDS-PAGE. Proteins in the gel were transferred to a nitrocellulose membrane by electroblotting. The membranes were treated with either anti-pTyr, anti-STAT3, anti-phospho STAT3, anti-α-metR, anti-IRS-1, anti-Flag, anti-phospho IRS-1, anti-arginine (mono- and di-methyl), or anti-β-actin antibodies followed by incubation with secondary antibodies conjugated with HRP. Immunoreactive proteins were detected either by ECL or by ECL plus system (Amersham Pharmacia Biotech). In some cases, bands were quantified using the NIH Image software (Image J version 1.2; National Institutes of Health, Bethesda, Md.). […]
# [2] = tested on: IκBα; experiment: Confocal quantification of nuclear IκBα in PRMT2−/− fibroblasts; assay type: cell-based, mouse; details: after TNF-α 30 min, 30 minutes LMB
# Description: Immunohistochemistry and confocal microscopy. PRMT2^−/− fibroblasts were transfected with a HA-tagged PRMT2 expression vector. 36 hrs after transfection the cells were treated with TNF-α for 30 min. The media was then removed and cells were incubated for an additional 30 minutes in the presence or absence of LMB. Cells were fixed, permeabilized with CytoFix-CytoPerm (BD Biosciences) for 20 minutes, and washed with Perm/Wash buffer (BD Biosciences). IκBα (Rabbit Polyclonal antibody, 1:1000; Santa Cruz Biotechnology) and HA (Rat Monoclonal antibody, 1:500; Roche) were diluted in Perm/Wash buffer and incubated for 1 hr. After two washes cells were stained with anti rabbit Alexa 488 and anti rat Alexa […] (1:1000, Invitrogen) for 30 min. Cells were washed and mounted with Ultracruz mounting media (Santa Cruz) containing DAPI. Confocal microscopy was performed using a Leica confocal microscope.
# [3] = tested on: HIV-1 LTR; experiment: HIV-1 reporter transcription, transient co-transfection; assay type: cell-based, human; details: 293T cells, expression plasmid co-transfected with HIV-1 reporter plasmid
# Description: Cell culture, transfection, and reporter gene assays. The E1A-transformed, human kidney cell line, 293, and NIH-3T3 cells were maintained in Dulbecco's Modified Eagle Medium (DMEM) supplemented with 10% fetal calf serum and penicillin-streptomycin at 37° C. in 5% carbon dioxide in tissue culture grade Petri dishes. PRMT-2−/− mouse embryo fibroblasts (MEFs) and wild type MEFs were prepared from day 13.5 embryos and maintained in DMEM supplemented with 10% fetal calf serum. MEFs at passage 4 were used in this experiment. Lipofectamine Plus™ reagent (Boehringer Mannheim) was used to transfect both 293 and NIH-3T3 cells according to directions from the manufacturer. […] TNF-α stimulation of cells was done using recombinant TNF-α (200 U/ml) for 12 hours. Transfected cells were harvested at 36 hours, and CAT activity was assayed on 10 to 100 μg of protein from whole cell extracts. CAT assays were performed essentially as described in Leung, K. & Nabel, G. J. Nature 333, 776-778 (1988). To analyze the κB-reporter activity in MEFs, cells were transfected with the reporter (2×kB-Luc) and PRL-TK vector (Promega) using FuGENE6 transfection reagent (Roche). Luciferase activity was analyzed by Dual-Luciferase Reporter Assay System (Promega). […]
# [4] = target: T1, RB (Homo sapiens, UniProt P06400); experiment: In vitro binding assay with GST-RB; details: S35-labeled in vitro translated protein
# T1 construct: coding region of RB cDNA was subcloned into pGEX-6P (Amersham/Pharmacia) for generation of GST-RB; made in house
# T1 sequence (P06400 1-928): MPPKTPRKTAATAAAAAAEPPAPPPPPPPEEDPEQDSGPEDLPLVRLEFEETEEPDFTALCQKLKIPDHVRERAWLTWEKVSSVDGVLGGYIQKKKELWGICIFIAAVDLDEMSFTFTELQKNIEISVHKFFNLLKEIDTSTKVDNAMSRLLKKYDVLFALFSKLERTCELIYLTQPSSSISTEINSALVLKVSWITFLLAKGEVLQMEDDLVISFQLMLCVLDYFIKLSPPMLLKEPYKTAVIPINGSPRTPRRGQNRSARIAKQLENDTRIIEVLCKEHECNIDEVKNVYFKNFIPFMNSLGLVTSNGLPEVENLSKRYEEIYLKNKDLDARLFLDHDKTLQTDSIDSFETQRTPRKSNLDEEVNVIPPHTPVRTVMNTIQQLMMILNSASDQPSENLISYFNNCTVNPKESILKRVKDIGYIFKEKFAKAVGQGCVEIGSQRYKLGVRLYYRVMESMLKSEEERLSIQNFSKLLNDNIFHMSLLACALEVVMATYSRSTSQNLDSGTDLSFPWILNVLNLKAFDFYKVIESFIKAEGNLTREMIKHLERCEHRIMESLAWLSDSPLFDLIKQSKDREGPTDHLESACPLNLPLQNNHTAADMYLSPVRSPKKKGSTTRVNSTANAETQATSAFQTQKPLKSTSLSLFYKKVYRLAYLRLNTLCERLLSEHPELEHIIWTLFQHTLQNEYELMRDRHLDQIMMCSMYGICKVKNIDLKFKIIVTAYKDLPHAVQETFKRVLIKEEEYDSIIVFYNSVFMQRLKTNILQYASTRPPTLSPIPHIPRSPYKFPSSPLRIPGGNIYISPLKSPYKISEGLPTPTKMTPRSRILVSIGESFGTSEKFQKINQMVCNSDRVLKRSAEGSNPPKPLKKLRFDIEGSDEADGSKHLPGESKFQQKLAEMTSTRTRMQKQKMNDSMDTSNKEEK
# Description: The crude cell lysate of the GST-fusion proteins was prepared and purified according to the manufacture's protocol (Amersham/Pharmacia). [^35S]-methionine-labeled protein was produced by in vitro transcription/translation using the TNT T7-coupled reticulocyte lysate system (Promega). [^35S]-methionine-labeled protein and GST-fusion protein bound to glutathione sepharose 4B beads were incubated in 500 μl of HNE buffer (50 mM Hepes, pH 7.8, 150 mM NaCl, 1 mM EDTA, 1 mM DTT, 1% NP40, and 1× protease inhibitor mix (Complete: Roche)) at 4° C. for 1 hour. Beads were washed four times with HNE buffer, and then analyzed on an SDS-PAGE gradient gel (4-15%). For the detection of endogenous PRMT-2 interaction with RB, MEFs were lysed with WCL buffer (50 mM Hepes, pH 7.8, 400 mM NaCl, 2 mM EDTA, 1 mM DTT, 0.2% NP40, 10% Glycerol, 20 mM α-glycerophosphate, 5 mM NaF, 0.1 mM NaVO4, and 1× protease inhibitor mix). Then, 1 mg of whole cell extracts were incubated with HNE buffer without DTT and 3 μg of antibodies as indicated. The immune complexes were isolated using protein G beads, and washed four times with HNE buffer. The precipitated protein was boiled with SDS-loading buffer and resolved on SDS-PAGE. […]
compound,measurement,setting,value
[O]=[V]([O-])([O-])[O-] [o-vanadate],leptin-stimulated tyrosine phosphorylation of Stat3,[1]; PRMT2−/− VSMC nuclear extracts,no enhancement of tyrosine phosphorylation of Stat3
same,leptin-stimulated tyrosine phosphorylation of Stat3,[1]; wild-type VSMC nuclear extracts,further enhanced leptin-stimulated tyrosine phosphorylation of Stat3
"CCC(=C/[C@H](C)C/C=C/C(C)=C/[C@@H](C)C(=O)[C@@H](C)[C@H](O)[C@@H](C)C/C(C)=C/C(=O)O)/C=C/[C@@H]1OC(=O)C=C[C@@H]1C [LMB, leptomycin B]",nuclear IκBα,[2],promoted nuclear accumulation of IκBα
"PRMT1: human protein arginine methyltransferase 1, expression construct [reference compound]",stimulation of HIV-1 transcription,[3],about 10 fold
same,binding to RB,[4],do not bind RB
